Data reported in paper PMC7144530 (The Journal of Experimental Medicine, 2020).

Tested on: CD8 T cells (CD4-depleted splenocytes)
Assay: IFN-gamma ELISpot of CD8 T cells from mice immunized with mutant SLP + adjuvant
Assay type: in vivo, mouse
Conditions: long peptide ELISpot, immunized vs control; positivity needs effect size ≥2

In the case of “IYEFDYHLYGQNITMIMTSVSGHL [Mutation C-117]”, the “fold-change of IFN-gamma spot counts after vaccination” value is reported as 1.94.
